SMILES strings stand for the structures. “Also recorded” adds a separate entry of the source. Counter-ions that a name gives are not always drawn. Like-named read-outs stand apart in the source and are kept apart here. Some results are limits rather than exact numbers.

The nature of series [1]: Toxicity (DL50) in Swiss mice. It is filed as in vivo, both male and female. As to conditions: mouse, in vivo, Swiss mice male and female. The text has this:
(§1) In vivo, the degree of toxicity of AHEDP has been determined in Swiss mice, both male and female by various routes of administration and by comparison with some of the best known and used diphosphonates.

In the next series the test system is calvaria cells. The experiment in a line: cells. It is filed as cell-based, Wistar rats. On the procedure: Cellular culture; the cells are first cultured in accordance with the method reported by Fast, et al., (Biochemical Journal, 172, 97-107 (1978). In short, calvaria removed from Wistar rats one day old has been digested with collagenase. The freed cells have been placed on plates in a concentration of […] per ml of medium in Petri dishes of 3.5 cm diameter containing 1.5 ml of medium in dishes of 1.6 cm diameter containing 0.5 ml of medium. The cells have been cultivated in the essential minimum medium containing 10% of fetal calf serum in an atmophere of 5% CO2 at 37° C. up to the seventh or eighth day. The diphosphonates have been added on the first day up to the end of the experiment.
The cells have been counted with a Coulter counter after having been freed from the dishes by digestion with a mixture of collagenase and trypsin. On the seventh day, the mixture has been changed and the cells have been incubated for sixteen hours. The so obtained lactate during this period has been measured according to the method of Fast, et al.

For series [2] the following is noted: no APD clinical test described in the patent; cited from earlier work.
Series [3] in a line: Clinical study: tolerability. It is filed as in vivo. The text has this: (§2) Six individuals affected by the bone disease called Paget's condition, that is three men and three women of age between 52 and 68; three individuals affected by metastatic osteolysis, resulting from mammary carcinoma, that is three women between age 42 and 59 years old.
(§3) In eight cases, that is five individuals affected by Paget's disease and three individuals affected by osteolysis, the treatment has been carried out for fifteen days (in one of the cases of the individuals affected by Paget's disease, treatment continued for an additional fifteen days of therapy with a higher dosage); in the ninth case of the individual affected by Paget's disease, the treatment was continued for thirty days.
(§4) The first four cases, that is two individuals affected by Paget's disease and two individuals affected by osteolysis, have received dosage of AHEDP of 5 mg daily by the intravenous route (slow infusion); in the fifth case, the individual affected by Paget's disease, received a dose of 10 mg daily for fifteen days and then 20 mg daily for an additional period of fifteen days. Three other cases, that is two individuals affected by Paget's disease and one individual affected by osteolysis have been administered doses of 20 mg daily for fifteen days. The ninth individual affected by Paget's disease, has been treated with doses of 40 mg daily for 30 days.
(§5) Several parameters have been studied prior to the treatment, during the treatment and at the end of the treatment with respect to the metabolism of phosphorus and calcium and the tolerability of the substance.
Hemochromocytometric examination, proteinemia, glycemia, azotemia, creatininemia, transaminasemia, immunoglobulin.

The next series is described as follows: Solubility. The series is classed as physicochemical.
For series [4], the system named is demineralizing osteopathias, characterized by a high rate of bone reabsorption. Kind of series: Clinical study: metabolism of phosphorus and calcium, indexes of bone reabsorption. The series is classed as in vivo.
From the text: In view of the favorable pharmacological and toxicological results, the substance, AHEDP, has been tested clinically. The study deals with the effects on the metabolism of phosphorus and calcium of the new diphosphonate according to the present invention used in the treatment of demineralizing osteopathias, characterized by a high rate of bone reabsorption.
as §2, §3, §4, §5
calcemia, phosphatemia, alkaline phosphatasemia, plasmatic PGE2, plasmatic iPTH, calciuria, phosphaturia, hydroxyprolinuria, cyclic nephrogenic AMP.

For a further series, the system named is Swiss mice. The experiment in a line: Toxicity (DL50) in Swiss mice. The series is classed as in vivo, both male and female.
From the text: as §1

Another series deals with bone reabsorption. Kind of series: Bone reabsorption and in vivo calcification (mineral density in the tibia metaphysis, body weight). Set-up: species or system Wistar rats. How it is done:
Groups of five Wistar rats of weight between 180 and 200 grams have been treated for seven days with 0.01, 0.1, 1.0 and 10 mg P/kg of AHEDP or with a physiological solution by the subcutaneous route. The animals have been fed with Altromine 1314 containing 1.1 gram per 100 grams of calcium, 1.2 grams per 100 grams P and 250 IU per 100 grams of Vitamin D3. On the eighth day, the animals were killed and the tibia bones are removed and fixed in 50% ethanol. The tibia bones were then prepared for the histological examination and sections of 70-80μ thickness have been prepared for the microradiological study. This procedure has permitted an estimate of the mineral density in the metaphysis (Schenk, et al. Calc. Tiss. Res. 11, 196-214, 1973).

A short description of a further series: Toxicity (DL50) in rats. To be noted: rat, in vivo, iv; I.v., rats (footnote *).
The conditions of series [5]: oral route or systemic route; cited from earlier work.
For series [6] the following is noted: solutions, very low concentrations; cited from earlier work.
[7] abbreviates: Rattus norvegicus, read-out: No. of Cells, % of control ± E.S.

Take `O=P([O-])([O-])C(Cl)(Cl)P(=O)(O)O.[Na+].[Na+]` [Cl2 MDP, Dichloromethylenediphosphonic acid disodium salt]: the 50% lethal dose (LD50) is 780 mg/kg in series [1] (ip, I.p.); 75 mg/kg in [1] (iv, I.v.); greater than 2000 mg/kg in [1] (po, OS (orally)).

Consider `NCCC(O)(P(=O)([O-])O)P(=O)([O-])O.[Na+].[Na+]` [APD, 3-Amino-1-hydroxypropane-1,1-diphosphonic acid disodium salt], for which, in the series with calvaria cells (setting [7]), the activity at 2.5 µM amounted to 90.8 ± 2.1%, the activity at 25 µM came out at 64.9 ± 4.1% and the activity at 250 µM amounted to 0%. In series [1] (ip, I.p.), this compound came in with an LD50 of 190 mg/kg. This compound had an LD50 in series [1] (iv, I.v.) of 45 mg/kg. Besides, the median lethal dose (LD50) in [1] (po, OS (orally)) is 625 mg/kg. In [2], the “alterations in body temperature and hematic crasia (comparison analog)” value is given as “causes substantial alterations in the parameters discussed hereinabove”.

`NCCCCCC(O)(P(=O)(O)O)P(=O)(O)O` [AHEDP, 6-amino-1-hydroxyhexane-1,1-diphosphonic acid]: the tolerability result in series [3] (5-40 mg daily intravenous, 15-30 days) is reported as “well tolerated; also recorded: tolerated in all cases”. In addition, the “variations in the parameters of tolerability” value in series [3] (hemochromocytometric examination, proteinemia, glycemia, azotemia, creatininemia, transaminasemia, immunoglobulin) is recorded as “has not caused significant variations in the parameters of tolerability”. Further, the “increase of the body temperature or variation in the hematic crasia” value in [3] (human, in vivo) is listed as “in none of the individuals treated, there has been observed an increase of the body temperature or any variation in the hematic crasia”. Moreover, the “modifications of the hematic crasia and hepatic and renal functions” value in series [3] (human, in vivo) is “nor have substantial modifications of the hematic crasia and hepatic and renal functions been noted”. The side effects result in series [3] (human, in vivo) is recorded as “no side effects of any significance have been noted; also recorded: no undesirable side effects have been noted”. The “solubility in HCl” value in the series “Solubility” (HCl of average concentration) is recorded as “dissolves in HCl of average concentration”. Further, the solubility in water result in the series “Solubility” (water) is “little soluble in water”. For the same compound, the “solubility with NaOH” value in “Solubility” (water with addition of one equivalent of NaOH) is listed as “dissolves completely by addition of one equivalent of NaOH”. The “plasmatic PGE2” value in series [4] (10 mg daily, one individual with Paget's disease) was “has not caused any change in this parameter”; in series [4] (20-40 mg daily, three individuals with Paget's disease and high prior levels), “substantial and rapid decrease in the plasmatic PGE2 in all three individuals”. Also, the “osteolysis and plasmatic alkaline phosphatase (both parameters)” value in [4] (40 mg daily, one individual) was “a reduction of both parameters”. Besides, the alkaline phosphatasemia entry in series [4] (40 mg daily, one individual (Paget's disease in active phase)) was “clear and rapid decrease of the alkaline phosphatasemia levels”. The “urinary excretion of inorganic calcium and inorganic phosphates” value in [4] (5-10 mg daily) is recorded as “have not modified to a significant degree”; in series [4] (20-40 mg daily, obvious particularly in phosphaturia), “significant increases of these two parameters”. For the same compound, in series [4] (5-10-20 mg daily), the “alkaline phosphatasemia / indexes of osteoblastic activity” value was “have not been modified; also recorded: have not caused significant modifications in the plasmatic alkaline phosphatase”. The osteolysis entry in [4] (5-10-20 mg daily) is reported as “blocking osteolysis”. Further, the “indexes of parathyroid activity (plasmatic immunoreactive PTH, cyclic nephrogenic AMP)” value in series [4] (5-10-20-40 mg daily) is “have not caused significant modification changes in the indexes of parathyroid activity”. Moreover, the “urinary excretion of hydroxyproline” value in series [4] (all the individuals treated) is “reduced to a significant extent in all the individuals treated; also recorded: prompt and progressive reduction of the urinary excretion of hydroxyproline”. For the same compound, the “calcium and phosphate levels of the plasma” value in series [4] (every dosage used) is listed as “has not caused variations worth mentioning”. Also, the hyperphosphatemia result in series [4] (human, in vivo) was “phases of hyperphosphatemia have not been observed”. Besides, the calcemia entry in [4] (very short periods of some treatments) is “a low degree of calciemic contents have been noted”. In addition, the “hydroxyprolinuria, dependence on dosage” value in series [4] (with respect to the values prior to treatment) is “so much greater with respect to the values prior to treatment, the higher the dosage”. For the same compound, the “effect on the number of cells (in words)” value in the series on calvaria cells (250 μM) was “some reductions, although slightly in the number of cells”. Moreover, the “effect on the production of the lactate (in words)” value in the series on calvaria cells (250 μM) is listed as “increase in the production of the lactate”. Further, the activity at 0.25 µM in the series with calvaria cells (Rattus norvegicus, 0.25 μM, read-out: No. of Cells, % of control ± E.S.) came out at 96.6 ± 1.7%. In addition, the activity at 2.5 µM in the series on calvaria cells (Rattus norvegicus, 2.5 μM, * = significance with respect to the control (APD), read-out: No. of Cells, % of control ± E.S.) was 95.7 ± 7.8%. Further, the activity at 25 µM in the series with calvaria cells (Rattus norvegicus, 25 μM, * = significance with respect to the control (APD), read-out: No. of Cells, % of control ± E.S.) is 104 ± 2.1%. The activity at 250 µM with calvaria cells (Rattus norvegicus, 250 μM, * = significance with respect to the control (AHEDP), read-out: No. of Cells, % of control ± E.S.) was determined as 88.4 ± 1.5%. For the same compound, the “cellular toxicity, times less than APD” value in the series on calvaria cells (compared with the analog APD) is “about 100 times less”. For the same compound, in the series with calvaria cells (concentrations lower than 250 μM), the “effect on the cellular behavior” value was “no negative effect is noted on the cellular behavior”. For the same compound, the “degree of toxicity (in words)” value in the series with Swiss mice (every route of administration) was “low degree of toxicity in every route of administration”. Further, the “tolerance in comparison with the analog ADP” value in the series on Swiss mice (mouse, in vivo) is reported as “superior tolerance”. Also, the LD50 was 650 mg/kg in series [1] (ip, I.p.); 85 mg/kg in series [1] (iv, I.v.); greater than 2000 mg/kg in series [1] (po, OS (orally)). Moreover, the “density of the bone” value in the series with bone reabsorption (0.01 mg P/kg, subcutaneous, seven days) was “no effect on the density of the bone”. In addition, the “inhibition of the bone reabsorption” value with bone reabsorption (0.1 mg and particularly 1 mg P/kg) is given as “a clear inhibition of the bone reabsorption”. Further, the “density of the metaphyses” value with bone reabsorption (0.1 mg and particularly 1 mg P/kg, subcutaneous, seven days) is listed as “an increase in the density of the metaphyses”. Further, the “influence on the body weight” value is recorded as “No treatment has shown any influence on the body weight” with bone reabsorption (0.01, 0.1, 1.0 mg P/kg, subcutaneous, seven days) and “except in the dose of 10 mg P/kg, which obviously has no significant value” in the series with bone reabsorption (10 mg P/kg, subcutaneous, seven days). The “inhibition of the bone reabsorption, in words and in comparison with other well-known diphosphonates” value in the series on bone reabsorption (rat, in vivo) is “powerful inhibitor of the bone reabsorption in a degree superior or similar to that of other well-known diphosphonates”.

As to `CC(O)(P(=O)(O)O)P(=O)(O)O` [EHDP, Ethane-1-hydroxy-1,1-diphosphonic acid disodium salt], the 50% lethal dose (LD50) amounted to 250 mg/kg in series [1] (ip, I.p.); 2000 mg/kg in [1] (po, OS (orally)); 35 mg/kg in “Toxicity (DL50) in rats”.

`O=P(O)(O)OP(=O)(O)O` [pyrophosphate]: the hydrolysis on administration result in [5] is “rapid hydrolysis”. Also, the “precipitation of calcium phosphate” value in series [6] is “capable of inhibiting the precipitation of calcium phosphate”.

The values are drawn from US4578376A, “Pharmaceutical compositions for the treatment of osteopathias” (Istituto Gentili S.p.A., priority 1981, dated 1986).
